From patent US10450549B2, “Aryloxyphenoxypropionate tolerance in turfrgass species and use of AAD1 as a selectable marker” (Dow AgroSciences, LLC, priority 2004, dated 2019)
Where two headings read alike, the source gives them in different places.

Assays:
AAD1 (v1) = biological target: T1, AAD1 (v1) (Sphingobium herbicidovorans, UniProt Q8KSC8); assay: HPLC analysis of herbicide degradation by AAD1 (v1) cell extract; format: biochemical; details: AAD1 (v1) cell extract, same conditions as 2,4-D
T1 construct: made in house; host or cells: E. coli BL-21 Star (DE3), plasmid pDAB3203
T1 sequence (Q8KSC8 whole entry): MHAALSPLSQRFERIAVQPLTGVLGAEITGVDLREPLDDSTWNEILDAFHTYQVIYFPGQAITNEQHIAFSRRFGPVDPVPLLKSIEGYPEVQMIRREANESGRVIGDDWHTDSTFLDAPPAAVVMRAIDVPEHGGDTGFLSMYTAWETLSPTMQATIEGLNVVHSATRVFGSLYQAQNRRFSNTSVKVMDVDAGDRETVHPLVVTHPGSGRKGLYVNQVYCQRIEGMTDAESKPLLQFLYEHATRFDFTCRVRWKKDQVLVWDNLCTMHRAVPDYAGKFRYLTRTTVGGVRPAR

[1] = tested on: Arabidopsis thaliana var. Columbia; assay: Arabidopsis plate test bioassay for herbicide degradation; format: in vivo; details: for IC50: Arabidopsis thaliana, 168 h
wt ARBTH = assay: In vitro plate test of herbicide cross resistance: wild-type Arabidopsis; format: in vivo, Arabidopsis thaliana; details: 7 days
Procedure: (§1) The ability of AAD1 (v3) to provide resistance to other aryloxyphenoxyalkanoate herbicides in transgenic Arabidopsis was determined using a modified in vitro plate assay. Seeds from wild-type Arabidopsis thaliana as well as Arabidopsis thaliana containing the plant optimized AAD1 (v3) gene (T4 homozygous plants id=PAAD1.315.064) were sterilized by agitating for 10 min in a 50% bleach solution. These seeds were then rinsed four times with sterile water to remove the bleach.
(§2) Dose response assays utilized a nutrient media (see below) supplemented with various rates of test compounds. The test compounds were added to the heated media (55° C.) as concentrated solutions in DMSO. Control wells had the appropriate amount of DMSO without any additional compound. The final concentration of DMSO never exceeded 1% (v/v). After thorough mixing, a 6 mL aliquot of the warm media containing the appropriate concentration of compound was added to each well of a 6-well, flat bottom, polystyrene tissue culture tray (Falcon 353046, Becton Dickson and Company, Franklin Lakes, N.J.). After the media solidified, approximately 20 to 30 Arabidopsis seeds were applied on top of the solidified media and the remaining 2 mL of media was poured over the seeds. The plates were lightly agitated to disperse the seeds, covered and allowed to cool until the media had completely solidified. The plates were incubated for 7 days at 25° C. under continual fluorescent lighting (75 μE m^−2 s^−1). Nutrient Media Composition was as described in Example 2.2 and in Somerville and Orgen (1982).
(§3) Assessment of Growth Reduction. The apical portion of the Arabidopsis plants grown in the treated media was assessed visually relative to the apical portion of the plants grown in the media containing only DMSO. Values were recorded as % growth reduction. Assessments of root growth inhibition of the Arabidopsis plants grown in the treated media were achieved by carefully extracting the plants from the media and measuring the length of the root. These root lengths were then compared to the root length of the control plants to determine a % growth reduction. A minimum of five plants were assessed for each treatment. The values recorded are an average of all the plants assessed. The calculated concentration to reach 50% inhibition effect (I50) were determined for both root and shoots of wildtype and AAD1-transformed Arabidopsis. The ratios of resistant to sensitive biotypes are included in Table 19. A ratio>2 for both root and shoot measurements generally signifies significant resistance. The higher the ratio, the greater the level of resistance. […] The broad phenoxy auxin resistance is the first reported in planta.

PAAD1.315.064 ARBTH = assay: In vitro plate test of herbicide cross resistance: homozygous T4 AAD1 (v3) Arabidopsis; format: in vivo, Arabidopsis thaliana
Procedure: as §1, §2, §3

[2] = tested on: T4 Arabidopsis homozygous for AAD1 (v3) (line AAD1.01.315.076); assay: Foliar-applied auxinic herbicides on homozygous T4 AAD1 (v3) Arabidopsis, % injury 14 DAT; format: in vivo, Arabidopsis thaliana; details: AAD1.01.315.076.T4 homozygous AAD1 plants
Procedure, shortened: (§4)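 Homozygous T4 AAD1 (v3) Arabidopsis (line AAD1.01.315.076) and a PAT/Cry1F transformed control were grown in pots and track-sprayed foliarly at 187 L/ha with herbicides formulated in 200 mM Hepes pH 7.5. Injury was rated 14 days after treatment, with 3-4 replicates averaged over two experiments.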

[3] = tested on: transformed-control line containing PAT and Cry1F; assay: Foliar-applied auxinic herbicides on control (PAT/Cry1F, wildtype) Arabidopsis, % injury 14 DAT; format: in vivo, Arabidopsis thaliana; details: PatCry1f - Control
Procedure, shortened: as §4

[4] = tested on: Non-transformed Hi-II callused suspension tissue; assay: Dose response of non-transformed maize callus tissue; format: cell-based
[5] = tested on: DAS Soybean cell suspensions; assay: Glufosinate selection of soybean suspension cells; format: cell-based
Procedure: The DAS Soybean cell suspensions were cultured on a 3 d cycle with 10 ml of settled suspension volume transferred to 115 ml of fresh liquid medium. Settled cell volume was determined by allowing the cell suspension to settle for 2 min in the 125-mL flask after vigorous swirling and then drawing cells from the bottom of the flask with a wide bore 10 ml pipette. The flasks were then transferred to orbital shakers at 140 rpm.
Aliquots of 4 ml of the suspension cells at 0.72 OD^600 was transferred along with 200 μM acetosyringone (AS) onto a 100×25 sterile Petri plate. EHA105 Agrobacterium suspension at a density of 1.2 OD^650 in a 100 μL volume was added and mixed well. The Agrobacterium and suspension cell mixture was swirled well and the plate was transferred to dark growth chamber where the temperature was maintained at 25° C.
13.2.1—Selection of soybean suspension cells and isolation of transformed colonies. After 4 days of co-cultivation the plate was swirled again to mix the suspension well and a 1.5 ml aliquot was transferred to the selection medium and spread on the gel medium on a 100×15 ml Petri-plate. […] After a 10 min drying in the hood the plates were incubated for 4 weeks in dark at 28° C. Colonies appeared in selection and a total of 11 colonies were transferred to fresh medium from 3 different experiments and maintained for 3-4 months. […]

[6] = resistant to sensitive biotype, >2 signifies resistance

## O=C(O)COc1nc(Cl)c(Cl)cc1Cl [Triclopyr]
AAD1 (v1)
  enzyme activity on substrate (HPLC): No enzyme activity was detected
[1]; AAD1 (v1)-expressing lysate, nominal concentration, read-out: GR50, Chemical + AAD1 v1
  IC50: 1000 nM
[1]; root length, 7 days, read-out: GR50, Chemical alone
  IC50: 255 nM
[1]; enzyme-expressing lysate vs blank vector, ≥ 2 = threshold for activity loss
  GR50 ratio: 1
Wt ARBTH; root
  wt ARBTH root 150: 0.02 ppm
Wt ARBTH; shoot
  wt ARBTH shoot 150: 0.2 ppm
PAAD1.315.064 ARBTH; [6]
  root ratio: 1
  shoot ratio: 0.2
PAAD1.315.064 ARBTH; root and shoot assessment
  resistance afforded by AAD1 (v3) in plate test: did not effectively protect
PAAD1.315.064 ARBTH; root, 7 days
  PAAD1.315.064 ARBTH root 150: 0.02 ppm
PAAD1.315.064 ARBTH; shoot, 7 days
  PAAD1.315.064 T3 ARBTH shoot 150: 0.04 ppm
[2]; 50 g ae/ha foliar
  Ave % Injury 14DAT: 31%
[2]; 200 g ae/ha foliar
  Ave % Injury 14DAT: 58%
[2]; 800 g ae/ha foliar
  Ave % Injury 14DAT: 74%
[2]; 3200 g ae/ha foliar
  Ave % Injury 14DAT: 97%
[3]; 50 g ae/ha foliar
  Ave % Injury 14DAT: 36%
[3]; 200 g ae/ha foliar
  Ave % Injury 14DAT: 65%
[3]; 800 g ae/ha foliar
  Ave % Injury 14DAT: 84%
[3]; 3200 g ae/ha foliar
  Ave % Injury 14DAT: 95%

## N#Cc1ccc(Oc2ccc(O)cc2)c(F)c1 [cyhalofop phenol]
[4]; 1 μM
  callus growth relative to control without cyhalofop phenol: 76%

## CP(=O)(O)CCC(N)C(=O)O (centres unmarked) [glufosinate ammonium]
[5]; 0.5 mg/l
  response of non-transformed suspension cells: sensitive
[5]; 5 mg/L (5× concentration), up to 4 months
  response of transformed colonies: resistant

## Oc1ccc(Oc2ncc(C(F)(F)F)cc2Cl)cc1 [haloxyfop phenol]
[4]; 300 nM
  callus growth relative to control lacking haloxyfop phenol: equal to or greater than the control
